Source: ChEMBL document CHEMBL1201862, “PubChem BioAssay data set” (2004)
Active and inactive are the calls of the source.

Tests used:
[1] = biological target: T1, Tyrosine-protein phosphatase non-receptor type 7 (Homo sapiens, UniProt P35236); test: inhibitors of human HePTP phosphatase, […], biochemical, absorbance, leukemia target (AID 521); format: functional
T1 sequence (P35236 whole entry): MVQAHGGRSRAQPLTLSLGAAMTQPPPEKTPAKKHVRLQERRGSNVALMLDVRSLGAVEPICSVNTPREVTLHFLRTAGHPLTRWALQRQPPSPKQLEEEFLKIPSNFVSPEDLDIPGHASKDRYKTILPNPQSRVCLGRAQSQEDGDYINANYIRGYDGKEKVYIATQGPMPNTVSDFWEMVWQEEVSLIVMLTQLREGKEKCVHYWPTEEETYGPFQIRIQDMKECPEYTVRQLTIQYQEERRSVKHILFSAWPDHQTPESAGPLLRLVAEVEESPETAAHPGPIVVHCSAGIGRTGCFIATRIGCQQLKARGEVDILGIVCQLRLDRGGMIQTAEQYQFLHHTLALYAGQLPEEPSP

[2] = biological target: Lytic switch protein BZLF1 (Epstein-Barr virus (strain B95-8) (HHV-4) (Human herpesvirus 4), UniProt P03206); test: EBV ZTA inhibitors, dose response, counter-screen for EBNA-1 inhibitor project, biochemical, fluorescence polarization, Epstein-Barr virus, 1536-well (AID 2377); design: species or system human gammaherpesvirus 4;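 further: fluorescence polarization of Cy5-labelled ZRE DNA probe bound by purified Zta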
Lytic switch protein BZLF1, sequence (P03206 whole entry): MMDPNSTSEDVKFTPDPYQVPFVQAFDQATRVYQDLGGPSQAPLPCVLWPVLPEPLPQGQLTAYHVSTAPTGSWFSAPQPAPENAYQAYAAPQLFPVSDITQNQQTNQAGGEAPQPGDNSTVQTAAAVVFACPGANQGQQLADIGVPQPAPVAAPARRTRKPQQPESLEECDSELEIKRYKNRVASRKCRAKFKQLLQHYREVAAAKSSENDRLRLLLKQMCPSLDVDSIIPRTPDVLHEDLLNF

[3] = biological target: Epstein-Barr nuclear antigen 1 (Epstein-Barr virus (strain B95-8) (HHV-4) (Human herpesvirus 4), UniProt P03211); test: EBNA-1 inhibitors, dose response, biochemical, fluorescence polarization, 1536-well (AID 2381); design: species or system human gammaherpesvirus 4;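 further: fluorescence polarization of a Cy5 DNA probe bound by EBNA-1 protein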
Epstein-Barr nuclear antigen 1, sequence (P03211 whole entry): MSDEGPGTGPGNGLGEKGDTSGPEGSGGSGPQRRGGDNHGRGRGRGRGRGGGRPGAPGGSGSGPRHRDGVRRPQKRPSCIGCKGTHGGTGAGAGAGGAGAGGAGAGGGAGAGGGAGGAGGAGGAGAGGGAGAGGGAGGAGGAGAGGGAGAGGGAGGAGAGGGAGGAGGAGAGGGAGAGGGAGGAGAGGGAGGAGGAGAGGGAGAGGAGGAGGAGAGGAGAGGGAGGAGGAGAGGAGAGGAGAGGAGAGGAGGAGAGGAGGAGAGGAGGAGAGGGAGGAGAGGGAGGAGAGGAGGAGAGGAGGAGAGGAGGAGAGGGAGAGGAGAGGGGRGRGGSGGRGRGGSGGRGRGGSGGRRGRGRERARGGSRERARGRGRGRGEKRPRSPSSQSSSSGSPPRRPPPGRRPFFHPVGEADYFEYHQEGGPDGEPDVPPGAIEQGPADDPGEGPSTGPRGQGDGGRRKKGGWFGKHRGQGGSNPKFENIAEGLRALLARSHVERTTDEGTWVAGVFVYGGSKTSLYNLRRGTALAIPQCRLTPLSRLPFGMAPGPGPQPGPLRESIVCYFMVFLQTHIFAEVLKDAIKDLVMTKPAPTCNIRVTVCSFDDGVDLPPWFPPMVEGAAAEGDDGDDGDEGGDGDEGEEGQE

[4] = enhancers of respiration in Yfh1-depleted yeast, dose response, Friedreich's ataxia, plus single-dose screen (AID 1465); format: functional;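 further: yeast depleted of Yfh1p frataxin homolog grown on glycerol needing respiration; WST-1 tetrazolium dye reduction as measure of cellular dehydrogenase metabolic activity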
[5] = biological target: Disintegrin and metalloproteinase domain-containing protein 17 (Homo sapiens, UniProt P78536); test: exosite inhibitors of ADAM17, dose response, biochemical (AID 743260)
Disintegrin and metalloproteinase domain-containing protein 17, sequence (P78536 whole entry, the tested form may be a part): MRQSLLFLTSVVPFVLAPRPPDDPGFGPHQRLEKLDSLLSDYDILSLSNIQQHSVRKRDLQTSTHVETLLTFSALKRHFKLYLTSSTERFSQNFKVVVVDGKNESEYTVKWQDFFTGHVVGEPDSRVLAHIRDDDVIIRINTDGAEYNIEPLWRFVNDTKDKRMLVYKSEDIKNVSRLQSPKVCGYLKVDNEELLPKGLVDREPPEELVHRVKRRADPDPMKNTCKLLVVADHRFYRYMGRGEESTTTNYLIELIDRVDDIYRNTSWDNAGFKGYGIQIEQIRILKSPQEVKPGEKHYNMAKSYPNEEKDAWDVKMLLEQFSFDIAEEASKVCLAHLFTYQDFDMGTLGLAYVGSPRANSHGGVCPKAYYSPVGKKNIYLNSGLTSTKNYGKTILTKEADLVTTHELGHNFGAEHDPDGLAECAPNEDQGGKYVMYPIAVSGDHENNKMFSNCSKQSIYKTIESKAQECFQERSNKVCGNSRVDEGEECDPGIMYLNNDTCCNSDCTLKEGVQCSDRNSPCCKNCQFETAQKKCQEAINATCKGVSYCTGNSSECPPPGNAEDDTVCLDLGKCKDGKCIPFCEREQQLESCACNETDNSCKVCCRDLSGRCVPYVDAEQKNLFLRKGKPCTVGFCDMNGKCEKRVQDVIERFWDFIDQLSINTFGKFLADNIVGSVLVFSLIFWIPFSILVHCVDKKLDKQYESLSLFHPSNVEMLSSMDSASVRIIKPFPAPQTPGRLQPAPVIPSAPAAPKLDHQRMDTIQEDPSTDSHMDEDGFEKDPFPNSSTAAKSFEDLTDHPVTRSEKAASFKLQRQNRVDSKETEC

[6] = Luminescence Cell-Based Dose Confirmation HTS to Identify Inhibitors of Platelet Dense Granule Release. [Related pubchem assays: 1663 (Primary HTS), 1678 (Summary of Project)]; format: functional
[7] = Escherichia coli growth inhibition, dose response, counter-screen for MEX-5/POS-1 RNA-binding inhibitor project, luminescence, NEB5alpha (AID 1959); format: functional
[8] = biological target: T2, RNA-binding protein pos-1 (Caenorhabditis elegans, UniProt G5EF15); test: inhibitors of POS-1/mex-3 RNA binding, dose response, biochemical, fluorescence polarization (AID 1964);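 further: purified POS-1 fused to maltose binding protein made in E. coli; potency of compounds blocking POS-1 binding to fluorescent RNA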
T2 sequence (G5EF15 whole entry): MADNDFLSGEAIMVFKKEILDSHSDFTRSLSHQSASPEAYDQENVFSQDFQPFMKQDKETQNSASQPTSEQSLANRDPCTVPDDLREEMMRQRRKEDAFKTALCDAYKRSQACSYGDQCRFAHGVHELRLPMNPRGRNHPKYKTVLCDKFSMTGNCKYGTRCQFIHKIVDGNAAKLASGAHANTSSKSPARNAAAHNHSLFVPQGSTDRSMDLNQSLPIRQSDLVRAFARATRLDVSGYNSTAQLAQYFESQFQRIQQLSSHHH

[9] = biological target: Luciferin 4-monooxygenase (Photinus pyralis, UniProt P08659); test: firefly luciferase enzyme inhibitors, dose response, biochemical, luminescence (AID 1891)
Luciferin 4-monooxygenase, sequence (P08659 whole entry): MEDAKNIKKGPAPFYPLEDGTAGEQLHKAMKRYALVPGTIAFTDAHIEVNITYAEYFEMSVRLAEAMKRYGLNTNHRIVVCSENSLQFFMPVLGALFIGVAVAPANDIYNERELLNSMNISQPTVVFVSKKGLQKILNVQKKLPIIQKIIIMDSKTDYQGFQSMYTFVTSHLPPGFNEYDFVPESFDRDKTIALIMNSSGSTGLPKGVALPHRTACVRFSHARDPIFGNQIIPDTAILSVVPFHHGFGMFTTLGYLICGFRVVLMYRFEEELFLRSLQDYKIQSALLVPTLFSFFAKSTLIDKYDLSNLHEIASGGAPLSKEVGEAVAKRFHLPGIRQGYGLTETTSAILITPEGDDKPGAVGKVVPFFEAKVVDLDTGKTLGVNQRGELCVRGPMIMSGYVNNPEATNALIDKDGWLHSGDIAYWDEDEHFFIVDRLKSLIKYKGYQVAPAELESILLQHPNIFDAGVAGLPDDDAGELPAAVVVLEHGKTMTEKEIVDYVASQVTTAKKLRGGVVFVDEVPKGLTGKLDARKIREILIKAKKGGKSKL

[10] = ADAM10 protease inhibitors, dose response, selectivity assay for ADAM17 exosite inhibitor project, biochemical, FRET peptide substrate, recombinant human ADAM10 (AID 743259);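 further: ADAM10 enzyme cleaving a FRET peptide substrate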
Vero = test: cytotoxicity of synthesized analogs in Vero cells, SAR follow-up, cytotoxicity control for West Nile virus antiviral project, cell-based, set II (AID 2402); format: functional; conditions: Chlorocebus sabaeus
[11] = biological target: Transitional endoplasmic reticulum ATPase (Homo sapiens, UniProt P55072); test: Luminescence dose response biochemical high throughput screening assay for inhibitors of the p97 ATPase: synthesized compounds. [Related pubchem assays: 1481, 1517 ]
Transitional endoplasmic reticulum ATPase (Homo sapiens, UniProt P55072), sequence (P55072 whole entry): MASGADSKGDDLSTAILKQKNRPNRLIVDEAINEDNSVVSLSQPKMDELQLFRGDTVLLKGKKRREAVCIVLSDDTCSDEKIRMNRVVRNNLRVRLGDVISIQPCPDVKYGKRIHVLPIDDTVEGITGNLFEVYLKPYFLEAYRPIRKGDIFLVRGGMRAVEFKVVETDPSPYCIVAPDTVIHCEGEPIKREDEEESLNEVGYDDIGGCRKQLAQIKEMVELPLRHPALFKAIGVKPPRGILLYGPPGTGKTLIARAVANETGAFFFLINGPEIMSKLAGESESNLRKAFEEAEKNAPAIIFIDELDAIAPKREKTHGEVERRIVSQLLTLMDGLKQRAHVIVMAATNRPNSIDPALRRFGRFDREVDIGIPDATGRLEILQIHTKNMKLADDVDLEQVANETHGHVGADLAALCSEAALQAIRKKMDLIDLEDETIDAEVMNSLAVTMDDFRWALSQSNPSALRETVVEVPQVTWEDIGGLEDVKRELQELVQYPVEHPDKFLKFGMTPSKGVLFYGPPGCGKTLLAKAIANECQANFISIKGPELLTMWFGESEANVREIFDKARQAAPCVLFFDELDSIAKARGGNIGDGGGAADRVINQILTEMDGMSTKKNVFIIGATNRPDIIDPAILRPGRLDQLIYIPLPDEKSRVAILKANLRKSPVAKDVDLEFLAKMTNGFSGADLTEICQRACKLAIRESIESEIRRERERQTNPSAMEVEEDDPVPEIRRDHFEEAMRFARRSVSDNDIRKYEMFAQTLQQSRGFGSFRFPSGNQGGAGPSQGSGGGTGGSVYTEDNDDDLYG

[12] = biological target: Transitional endoplasmic reticulum ATPase (Homo sapiens, UniProt P55072, C522A); test: Luminescence counterscreen assay for p97 inhibitors: dose response biochemical high throughput screening assay to identify inhibitors of the C522A mutant p97 ATPase: synthesized compounds. [Related pubchem assays: 1481, 1517, 1551 ]
Transitional endoplasmic reticulum ATPase (Homo sapiens, UniProt P55072, C522A), sequence (P55072 2-806 C522A limits assumed): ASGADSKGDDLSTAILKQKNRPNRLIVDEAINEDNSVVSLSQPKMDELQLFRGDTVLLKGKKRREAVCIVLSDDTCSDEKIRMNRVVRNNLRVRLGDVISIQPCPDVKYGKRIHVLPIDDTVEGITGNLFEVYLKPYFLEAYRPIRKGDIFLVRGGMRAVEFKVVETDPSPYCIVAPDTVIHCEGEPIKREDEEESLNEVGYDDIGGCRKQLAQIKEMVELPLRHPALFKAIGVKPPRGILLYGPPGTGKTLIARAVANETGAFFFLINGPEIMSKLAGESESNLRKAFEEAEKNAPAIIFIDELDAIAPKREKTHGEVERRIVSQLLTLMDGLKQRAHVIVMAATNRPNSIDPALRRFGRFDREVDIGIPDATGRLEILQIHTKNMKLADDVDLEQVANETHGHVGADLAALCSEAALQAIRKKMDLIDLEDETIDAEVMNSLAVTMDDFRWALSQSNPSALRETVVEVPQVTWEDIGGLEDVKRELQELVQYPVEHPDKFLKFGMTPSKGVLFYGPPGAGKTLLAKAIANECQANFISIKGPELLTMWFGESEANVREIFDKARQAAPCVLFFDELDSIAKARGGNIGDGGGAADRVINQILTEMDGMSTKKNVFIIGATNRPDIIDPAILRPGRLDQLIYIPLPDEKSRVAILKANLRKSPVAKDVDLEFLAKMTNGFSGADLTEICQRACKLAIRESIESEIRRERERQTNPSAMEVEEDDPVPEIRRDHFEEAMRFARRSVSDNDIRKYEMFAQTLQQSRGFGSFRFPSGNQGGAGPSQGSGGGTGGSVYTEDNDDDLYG

Compound: COc1ccccc1C(=O)Nc1ccccc1C(=O)N1CCCC1
- IC50 [1]: > 100 µM (not active)

Compound: COC(=O)c1ccc2nc(NC(=O)CCS(=O)(=O)c3ccccc3)sc2c1
- IC50 [2]: > 111 µM (not active)
- IC50 [3]: 39 µM (not active)

Compound: CCOc1ccc(N/N=C2/C(=O)Nn3c2nc(C)cc3=O)cc1
- EC50 [4]: > 100 µM (active)
- IC50 [5]: > 69.5 µM (inactive)
- EC50 [6]: 9.37 µM (active)
- EC50 [7]: 16.2 µM (active)
- EC50 [8]: 213 µM (active)
- EC50 [9]: 0.535 µM (active)
- IC50 [10]: 24.7 µM (inactive)

Compound: COc1ccc(-c2csc(N(C)C(=O)c3ccccc3Cl)n2)cc1
- CC50 (Vero): > 50 µM (active)

Compound: CCOC(=O)/C(C#N)=C/c1ccc([N+](=O)[O-])cc1
- IC50 [11]: > 50 µM (not active)
- IC50 [12]: > 50 µM (not active)
